From patent US9738902B2, “Modified PYR/PYL receptors activated by ligands” (priority 2013, dated 2017)

Tests used:
[1] = biological target: T1, PYR1 K59R F108E (Arabidopsis thaliana, UniProt O49686, F108E/K59R); assay: Y2H Pocket Library Screen (HAB1, X-gal); type: cell-based
T1 construct: expressed in transfected cells; host or cells: S. cerevisiae Y190 yeast two-hybrid reporter strain
Procedure: (§1) The set of 475 mutant plasmids were individually transformed into the Y190 yeast two hybrid reporter strain co-transformed with pACT-HAB1, as previously described (Park et al., 2009). The yeast strains generated were arrayed into 96-well plates yielding what we refer to as the “pocket library”. The pocket library strains were spotted onto agar plates containing selective synthetic dextrose (minus Leu & Trp) medium that was supplemented with a single test compound at 100 μM. The pocket library strains were separately tested for responsiveness to the following compounds: dichlobenil, benzothiadiazole, mandipropamid, fludioxonil, and benoxacor. After incubating test plates at 30° C. for two days, colonies were chloroform lysed and stained to reveal β-galactosidase expression levels, using previously described methods (Park et al., 2009). Mutants displaying responsiveness to the test compound, if present, were identified by virtue of X-gal staining and then subjected to subsequent optimization efforts. Using this approach we identified mutations that conferred detectable sensitivity to the compounds tested (see entries labeled “Pocket Library Screens” in Table 1).

[2] = biological target: T2, PYR1 K59R F159I (Arabidopsis thaliana, UniProt O49686, F159I/K59R); assay: Y2H Pocket Library Screen (HAB1, X-gal); type: cell-based
T2 construct: expressed in transfected cells; host or cells: S. cerevisiae Y190 two-hybrid reporter strain
T2 sequence (O49686 whole entry K59R/F159I): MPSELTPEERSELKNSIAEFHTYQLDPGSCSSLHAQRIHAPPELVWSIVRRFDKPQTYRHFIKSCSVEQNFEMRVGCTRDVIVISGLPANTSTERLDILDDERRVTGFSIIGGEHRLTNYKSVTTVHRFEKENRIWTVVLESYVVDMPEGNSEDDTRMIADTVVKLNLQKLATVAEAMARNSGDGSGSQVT
T2 sequence (Q9CAJ0 23-511, further chain): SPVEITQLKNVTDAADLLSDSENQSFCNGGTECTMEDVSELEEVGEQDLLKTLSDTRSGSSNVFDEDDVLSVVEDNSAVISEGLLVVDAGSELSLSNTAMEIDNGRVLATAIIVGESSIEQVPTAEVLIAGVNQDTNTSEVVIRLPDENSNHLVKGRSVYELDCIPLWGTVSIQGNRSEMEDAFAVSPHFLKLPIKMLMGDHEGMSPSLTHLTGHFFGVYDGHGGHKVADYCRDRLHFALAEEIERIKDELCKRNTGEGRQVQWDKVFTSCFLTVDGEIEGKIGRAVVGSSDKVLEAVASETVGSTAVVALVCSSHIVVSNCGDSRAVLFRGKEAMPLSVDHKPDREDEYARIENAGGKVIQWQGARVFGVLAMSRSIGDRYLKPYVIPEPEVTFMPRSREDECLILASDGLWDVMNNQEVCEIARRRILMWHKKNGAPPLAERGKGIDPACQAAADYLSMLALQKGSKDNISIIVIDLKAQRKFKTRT
Procedure: as §1

[3] = biological target: T3, PYR1 K59R F159L (Arabidopsis thaliana, UniProt O49686, F159L/K59R); assay: Y2H Pocket Library Screen (HAB1, X-gal); type: cell-based
T3 construct: expressed in transfected cells; host or cells: S. cerevisiae Y190
T3 sequence (O49686 whole entry K59R/F159L): as the sequence (O49686 whole entry K59R/F159I) above, with I159L counted along it
T3 sequence (Q9CAJ0 23-511, further chain): as the sequence (Q9CAJ0 23-511, further chain) above
Procedure: as §1

[4] = biological target: T4, PYR1 K59R F159V (Arabidopsis thaliana, UniProt O49686, F159V/K59R); assay: Y2H Pocket Library Screen (HAB1, X-gal); type: cell-based
T4 construct: expressed in transfected cells; host or cells: S. cerevisiae Y190
T4 sequence (O49686 whole entry K59R/F159V): as the sequence (O49686 whole entry K59R/F159I) above, with I159V counted along it
T4 sequence (Q9CAJ0 23-511, further chain): as the sequence (Q9CAJ0 23-511, further chain) above
Procedure: as §1

[5] = system: PYR1^MANDI expressing transgenic plants (E15, E16, F29, F34); assay: water loss of detached rosettes; type: in vivo, Arabidopsis; settings: 2 μM mandipropamid, 24 hours before detachment
Procedure: As another measure of guard cell physiology, we measured rates of water loss in transgenic and control plants exposed to mock or mandipropamid treatments. It is well known that ABA treatments reduce leaf water loss via guard cell closure. 3 week-old homozygous transgenic plants (E15, E16, F29 and F34) and control wild type plants were treated with 2 μM mandipropamid or mock solutions (with 0.02% Silwet as described above). After 24 hours, whole rosettes were detached and their masses monitored over time. […] These experiments, together with the thermal imaging experiments, indicate that mandipropamid can reduce guard cell aperture and reduce transpiration rates in PYR1^MANDI expressing transgenic plants, just as ABA is well known to do to wild type plants.

[6] = system: MDP1 and MDP2 transgenic genotypes; assay: root growth inhibition assay; type: in vivo, Arabidopsis; settings: MDP1 and MDP2, 72 hours after transfer
Excerpt: (§2) Given the relatively high mandipropamid sensitivity of the MDP1 and MDP2 transgenic lines, these lines were subjected to further physiological characterization. One of ABA's physiological effects is to inhibit root growth. Mandipropamid should therefore inhibit root growth in the MDP1 and MDP2 transgenic lines, but not wild type, if it is successfully activating this ABA response. To test this, seeds of the wild type, PYR1-OX, MDP1 and MDP2 genotypes were surface sterilized in bleach and plated on to 0.7% agar petri plates containing ½ MS salts and 0.5% sucrose. After 4 days of stratification at 4° C., the plates were transferred to a growth chamber operating on a 16-hour day length cycle and allowed to germinate for 24 hours and then transferred to petri plates (0.7% agar containing ½ MS salts and 0.5% sucrose) supplemented with differing concentrations of mandipropamid. These plates were then grown vertically in a growth chamber operating on a 16-hour day length cycle. The amount of root growth after transfer was measured 72-hours later after transfer.

[7] = system: PYR1-OX; assay: root growth inhibition assay; type: in vivo, Arabidopsis; settings: 72 hours after transfer
Excerpt: as §2

[8] = system: wild type; assay: root growth inhibition assay; type: in vivo, Arabidopsis; settings: 72 hours after transfer
Excerpt: as §2

[9] = system: MDP1 and MDP2 transgenic plants; assay: qRT-PCR of ABA-regulated genes RD29B and RAB18; type: in vivo, Arabidopsis; settings: MDP1 and MDP2, 2 μM mandipropamid, 8 hours
Procedure: (§3) One of ABA's major effects is to regulate gene expression. We therefore examined the effects of ABA and mandipropamid on gene expression in wild type, PYR-OX, MDP1 and MPD2 transgenic plants. Seed of the wild type or transgenic lines were surface sterilized, stratified for 4 days at 4° C. and then grown for 10 days at room temperature under continuous illumination in a liquid culture consisting of 0.5×MS salts and 0.5% sucrose and grown with continuous shaking to provide aeration. After 10 days, the culture solutions were adjusted to contain 50 μM ABA, 2 μM mandipropamid, or a mock treatment. After 8 hours exposure to the test compounds RNA was isolated using RNAEasy™ Plant RNA isolation kit (Qiagen, USA) and treated with DNAse. The purified RNA was utilized in qRT-PCR reactions using primers for the ABA-regulated genes RD29B or RAB18. Biological triplicate and triple technical replicate measurements were conducted. To perform qRT-PCR analyses, cDNA was generated from 5 μg of total RNA using superscript reverse transcriptase III (Invitrogen, USA), in reaction mixture containing a oligo-dT20 (SEQ ID NO:110) and a ribosomal RNA primer. Real-time quantitative PCR analysis was performed by ΔCt method of relative quantification. PCR mixtures contained cDNA, Maxima® SYBR green/Fluorescein qPCR master mix (Fermentas, USA) and 330 nM of each gene-specific primer. RT-PCRs were conducted using a BioRad CFX96 Real-Time PCR System and the data were processed using the BioRad CFX Manager software (BioRad, USA). PCRs were performed under the following cycling conditions: 3 min at 95° C., followed by 40 cycles of 10 sec at 95° C., 10 sec at 55° C. and 30 sec at 72° C. in 96-well optical reaction plates (BioRad, USA). The specificity of amplicons was verified by melting curve (disassociation) analysis (60-95° C.) after 40 cycles. Input cDNA was normalized using an internal control gene, PEX4 (AT5G25760).

[10] = system: PYR1-OX; assay: qRT-PCR of ABA-regulated genes RD29B and RAB18; type: in vivo, Arabidopsis; settings: 2 μM mandipropamid, 8 hours
Procedure: as §3

[11] = system: wild type; assay: qRT-PCR of ABA-regulated genes RD29B and RAB18; type: in vivo, Arabidopsis; settings: 2 μM mandipropamid, 8 hours
Procedure: as §3

T1 sequence (O49686 whole entry K59R/F108E): as the sequence (O49686 whole entry K59R/F159I) above, with F108E, I159F counted along it
T1 sequence (Q9CAJ0 23-511 partner): as the sequence (Q9CAJ0 23-511, further chain) above

N#Cc1c(Cl)cccc1Cl [Dichlobenil, dichlobenil]
Threshold [1]: 100 µM
Threshold [2]: 100 µM
Threshold [3]: 100 µM
Threshold [4]: 100 µM

C#CCOc1ccc(CCNC(=O)C(OCC#C)c2ccc(Cl)cc2)cc1OC (stereo not drawn) [Mandipropamid, mandipropamid]
Threshold [1]: 100 µM
Threshold [2]: 100 µM
Threshold [3]: 100 µM
Threshold [4]: 100 µM
water loss of detached rosettes [5]: lower water loss
root growth [6]: inhibited
root growth [7]: negligible inhibition
root growth [8]: negligible inhibition
transcription of RD29B and RAB18 [9]: high-level transcription
transcription of RD29B and RAB18 [10]: does not do so
transcription of RD29B and RAB18 [11]: does not do so
